Laboratory results as given in patent publication US20030180345A1, “Compositions and methods for inhibiting islet dysfunction and autoimmune disorders” (priority 2000, published 2003).
Entries after “also recorded” stand apart in the source; their conditions may differ.

Assays:
fetal islet cells [1] = experiment: IL1β-induced apoptosis in cultured fetal islets (TUNEL); type: cell-based, Wistar rats; conditions: IL1β 50 U/ml
Description: The effect of in vitro taurine on the effect of IL1β-induced apoptosis was assessed. Fetal islets were isolated as described above in Example 1. On the 5th day of culture, islets were rinsed twice with serum free DME/F12 medium (1:1, v/v, Gibco, Paisley, Scotland) and were incubated in this medium supplemented with taurine at 0.3 or 3 mmol/l for 48 hours. For the final 24 hours of this incubation, IL1β (Endogen, Woburn, Mass.) was added to the incubation medium at a level of 50 U/ml. Apoptosis was quantified by confocal microscopy using TUNEL method, as outlined in Example 1.

fetal islet cells [2] = experiment: In vitro fetal islet cell proliferation (BrdU incorporation); type: cell-based, Wistar rats; conditions: LP islets; taurine 1.25 or 2.5 mmol/l in culture media
Description: Animals and diets were as described in Example 1. Fetuses were removed at fetal day 21.5, and fetal islet cells were isolated and treated as described in Example 1. Taurine was added to incubation medium at levels of either 0 mmol/l, 1.25 mmol/l or 2.5 mmol/l. Proliferation was evaluated using bromodeoxyuridine (BrdU) incorporation into DNA.

islet cells [3] = experiment: Islet cell apoptosis with maternal dietary taurine supplementation (TUNEL); type: in vivo, Wistar rats
Description: Animals and diets were prepared, and taurine supplementation in drinking water was conducted as described in Example 7. Islet cells were cultured and treated as described in Example 1. Islet cell apoptosis was determined using the TUNEL method, as described by […] et al., (Endocrinology 1999;140: 4861-4873). Four developmental stages were evaluated, namely: fetal day 21.5 ([…].5) or post-natal day 12 (PN12), 14 (PN14) or 30 (PN30).

Fas ligand = experiment: Islet Fas ligand immunoreactivity with dietary taurine supplementation; type: in vivo, Wistar rats; conditions: post-natal day 14
Description: Animals and diets were prepared as described in Example 8. The pancreas was removed, and the presence of Fas, Fas ligand, inducible nitric oxide synthase (iNOS) and vascular endothelial growth factor (VEGF) were evaluated in pancreatic sections using immunoreactivity.

fetal islets = experiment: Interaction of dietary and in vitro taurine on SNP- or IL1β-induced apoptosis of fetal islets; type: cell-based, Wistar rats
Description: Animals and diets were prepared as described in Example 7. Pancreases were removed and islets were isolated from late gestation fetuses at day 21.5. Neoformed fetal islets obtained after five days of culture from the four diet groups (C, C+Taurine, LP, and LP+Taurine) were compared for their susceptibility to apoptosis following exposure to SNP (100 μmol/l), or IL1β (50 U/ml), with or without in vitro taurine at either physiological (0.3 mmol/l) or supraphysiological (3.0 mmol/l) levels.

fetal pancreas = experiment: Fetal pancreatic vascularization with taurine supplementation; type: in vivo, Wistar rats; conditions: LP diet + taurine in drinking water; fetal day 21.5
Description: Animals and diets were as described above in Example 1. The fetal pancreas was removed at day 21.5. Vascular density, expressed as a percent of area, and number of blood vessels per unit area were evaluated.

NOD mice = experiment: Gestational taurine supplementation in NOD mice: diabetes onset, insulitis and endocrine pancreas development; type: in vivo
Text: Pregnant NOD mice (maintained as in Example 13) were supplemented with 2.5% of taurine in drinking water during gestation. Pups were either sacrificed at 14 days of age, and pancreata were collected and fixed for histology as depicted in FIG. 16, or followed until glucosurea was apparent.

IGF-II = experiment: Islet IGF-II immunoreactivity with dietary taurine supplementation; type: in vivo, Wistar rats; conditions: LP diet with taurine
Description: Animals and diets were prepared as described in Example 7. The pancreas was removed, and IGF-II immunoreactivity was evaluated according to a method described by […] et al., (Endocrinology 1999;140: 4861-4873). Expression of IGF-II, considered a survival factor for cells, was measured as an indicator of the overall health of the β cells.

islet cells [4] = experiment: Islet cell proliferation with maternal dietary taurine supplementation (BrdU immunostaining); type: in vivo, Wistar rats
Description: Adult virgin female Wistar rats were caged overnight with males and copulation was verified the next morning. Animals were maintained at 25° C. with a 10 h-14 h dark-light cycle. Pregnant rats were divided into four groups and fed one of the following isocaloric diets, either with or without taurine supplemented in the drinking water. […] The composition of the basal and low protein diets were described previously by Snoeck et a/.1990 (Biol. Neonate 57, 107-118). The diets were purchased from Hope Farms (Woerden, Holland). Animals in both the groups had free access to water at all times. Animals were divided into four groups to assess various parameters at different time periods. Females were sacrificed at 21.5 days of gestation by decapitation and fetuses were removed in order to evaluate parameters at fetal day 21.5 (F 21.5). Alternatively, animals gave birth and offspring were sacrificed at post-natal day 12, 14 or 30 (PN 12, PN 14, and PN 30, respectively). Bromodeoxyuridine (BrdU) incorporation was evaluated by immunostaining as described by […] et al., (Endocrinology 1999;140: 4861-4873).

NCCS(=O)(=O)O [taurine, 2-aminoethylsulfonic acid]
rate of IL1β-induced apoptosis in islet cells (fetal islet cells [1]; C diet group, only the high dose of taurine (3 mmol/l)): decreased significantly | number of islet cells positive for IL1β-induced apoptosis (fetal islet cells [1]; LP diet group, taurine 0.3 mmol/l and 3.0 mmol/l): significantly decreased | in vitro islet cell proliferation rate (BrdU) (fetal islet cells [2]): increased LP islet cell proliferation rate to the levels observed in C islets having no taurine addition | islet cell apoptosis (islet cells [3]; LP+Taurine vs control group (C), F21.5, PN12, PN14, PN30): either no difference, or a reduction in apoptosis compared to the control group | islet cell apoptosis (islet cells [3]; protein-sufficient (C) animals supplemented with taurine, post-natal days 12 and 14): reduction in apoptosis | Fas ligand presence in islets (Fas ligand): reduced | increased apoptotic response of LP fetal islets to SNP or IL1β (fetal islets; co-incubation with taurine in vitro (0.3 or 3.0 mmol/l)): reversed | SNP-induced and IL 1β-induced apoptosis in fetal islets (fetal islets; dietary taurine in low protein diet combined with high local taurine in vitro): synergistically decrease | increased apoptotic response of LP fetal islets to SNP or IL1β (fetal islets; maternal supplementation with taurine in vivo): reversed | blood vessel numbers per unit area (fetal pancreas): restoring both vascularization parameters to the level of the control groups | vascular density (percent of area) (fetal pancreas): restoring both vascularization parameters to the level of the control groups | proportion of IGF-II-immunoreactive islet cells (NOD mice; 14 days of age, p<0.01): greater proportion | mean islet area (NOD mice; 14 days of age, p<0.05): significantly smaller | proportion of proliferating islet cells (NOD mice; 14 days of age, p<0.05): greater proportion | number of apoptotic cells in islets (NOD mice; NOD female mice, 14 days of age, vs control animals): reduced nearly in half; also recorded: less apoptotic cells | survival (NOD mice; female and male NOD mice, Log Rank and Wilcoxon tests): improved survival | reduction of insulitis (NOD mice; insulitis appearing at 8 weeks, 2.5% taurine in drinking water during gestation): 90% | insulin/glucagon ratio (NOD mice; small islets, NOD female mice): No difference | percentage of PCNA positive cells (cell proliferation) (NOD mice; small islets, NOD female mice): significant increase | percentage of area stained for glucagon (alpha cells) (NOD mice; small islets, NOD female mice): significantly increased | percentage of area stained for insulin (β mass) (NOD mice; small islets, NOD female mice): significant increase | age by which 50% of mice became diabetic (NOD mice; taurine treatment n=51, controls 16 weeks, p<0.001): 26 weeks | IGF-II immunoreactivity (IGF-II; fetal period (F21.5)): increased IGF-II immunoreactivity to a level consistent with the C diet animals | IGF-II immunoreactivity (IGF-II; post-natal): restored IGF-II immunoreactivity levels to the point that the control IGF-II level was surpassed | β cell proliferation rate (BrdU incorporation) (islet cells [4]; C+Taurine, 2.5% taurine in maternal drinking water): did not significantly increase | islet cell proliferation rate (BrdU incorporation) (islet cells [4]; LP+Taurine, 2.5% (weight/volume) taurine in maternal drinking water): restore the proliferation rate to a level not significantly different from the control diet
